Laboratory results taken from ChEMBL document CHEMBL4602605, “Fluoroquinolones structural and medicinal developments (2013-2018): Where are we now?” (Bioorg Med Chem, 2019).
In brackets after ≈: the same amount, converted by molar mass.

Key:
Assay type in all cases: functional
[1] = test system: Mycobacterium tuberculosis; assay: Antimicrobial activity against Mycobacterium tuberculosis H37Rv ATCC 27294 incubated for 7 days by microplate Alamar blue assay; settings: H37Rv ATCC 27294, 168 h
[2] = test system: Staphylococcus epidermidis; assay: Antimicrobial activity against methicillin-susceptible Staphylococcus epidermidis ATCC 12228 incubated for 18 to 24 hrs by two-fold serial dilution method
Staphylococcus aureus [3] = assay: Antimicrobial activity against methicillin-susceptible Staphylococcus aureus ATCC 29213 incubated for 18 to 24 hrs by two-fold serial dilution method
Staphylococcus aureus [4] = assay: Antimicrobial activity against methicillin-resistant Staphylococcus aureus ATCC 33591 incubated for 18 to 24 hrs by two-fold serial dilution method
Enterococcus faecium = assay: Antimicrobial activity against Enterococcus faecium ATCC 700221 incubated for 18 to 24 hrs by two-fold serial dilution method
Pseudomonas aeruginosa = assay: Antimicrobial activity against Pseudomonas aeruginosa PAO1 by CLSI-based broth microdilution method
Escherichia coli = assay: Antimicrobial activity against tolC deficient Escherichia coli KD65 by CLSI-based broth microdilution method
Staphylococcus aureus [5] = assay: Antimicrobial activity against Staphylococcus aureus ATCC 29213 by CLSI-based broth microdilution method
[6] = Escherichia coli, KD65, read-out: MIC
[7] = Staphylococcus aureus, ATCC 29213, read-out: MIC

`COc1c(N2CCN(C/C(C)=N/Nc3ccc(F)cc3)CC2)c(F)cc2c(=O)c(C(=O)O)cn(C3CC3)c12` showed an MIC [1] of 0.215 µM (≈ 0.113 µg/mL), an MIC [2] of 0.125 µg/mL (≈ 0.238 µM) and an MIC (Staphylococcus aureus [3]) of 0.125 µg/mL (≈ 0.238 µM). The MIC (Staphylococcus aureus [4]) was 0.125 µg/mL (≈ 0.238 µM) and the MIC (Enterococcus faecium) was 32 µg/mL (≈ 60.9 µM).
`O=C(O)c1cn(C2CC2)c2c3c(c(F)cc2c1=O)N1CCCC1CC(O)C3O` (stereo unspecified) gave an MIC (Pseudomonas aeruginosa) of 8 µg/mL (≈ 20.6 µM), an MIC (Escherichia coli; [6]) of less than 0.06 µg/mL and an MIC (Staphylococcus aureus [5]; [7]) of less than 0.06 µg/mL.
`N[C@H]1CCN2c3c(F)cc4c(=O)c(C(=O)O)cn(C5CC5)c4c3CCC[C@H]12` showed an MIC (Pseudomonas aeruginosa) of 0.29 µg/mL (≈ 0.781 µM), an MIC (Escherichia coli; [6]) of 0.004 µg/mL (≈ 0.0108 µM) and an MIC (Staphylococcus aureus [5]; [7]) of 0.015 µg/mL (≈ 0.0404 µM).
`N[C@@H]1C[C@@H]2CC=Cc3c(c(F)cc4c(=O)c(C(=O)O)cn(C5CC5)c34)N2C1` gave an MIC (Pseudomonas aeruginosa) of 1 µg/mL (≈ 2.71 µM), an MIC (Escherichia coli; [6]) of 0.125 µg/mL (≈ 0.338 µM) and an MIC (Staphylococcus aureus [5]; [7]) of 0.25 µg/mL (≈ 0.677 µM).
With `N[C@H]1C[C@H]2CCCc3c(c(F)cc4c(=O)c(C(=O)O)cn(C5CC5)c34)N2C1` the MIC (Pseudomonas aeruginosa) was 0.5 µg/mL (≈ 1.35 µM), the MIC (Escherichia coli; [6]) was 0.015 µg/mL (≈ 0.0404 µM) and the MIC (Staphylococcus aureus [5]; [7]) was 0.5 µg/mL (≈ 1.35 µM).
Compound `O=C(O)c1cn(C2CC2)c2c3c(c(F)cc2c1=O)N1CCCC1CC=C3` (stereo unspecified) has an MIC (Pseudomonas aeruginosa) of 1 µg/mL (≈ 2.82 µM), an MIC (Escherichia coli; [6]) of 0.03 µg/mL (≈ 0.0847 µM) and an MIC (Staphylococcus aureus [5]; [7]) of 0.5 µg/mL (≈ 1.41 µM).
`N[C@H]1CCN2c3c(F)cc4c(=O)c(C(=O)O)cn(C5CC5)c4c3C=CC[C@H]12` was tested, and the MIC (Pseudomonas aeruginosa) was 0.16 µg/mL (≈ 0.433 µM), the MIC (Escherichia coli; [6]) was 0.0022 µg/mL (≈ 0.00596 µM) and the MIC (Staphylococcus aureus [5]; [7]) was 0.007 µg/mL (≈ 0.0189 µM).
Compound `N[C@@H]1CCN2c3c(F)cc4c(=O)c(C(=O)O)cn(C5CC5)c4c3C=CC[C@H]12` has an MIC (Pseudomonas aeruginosa) of 0.38 µg/mL (≈ 1.03 µM), an MIC (Escherichia coli; [6]) of 0.06 µg/mL (≈ 0.162 µM) and an MIC (Staphylococcus aureus [5]; [7]) of 0.045 µg/mL (≈ 0.122 µM).
Compound `O=C(O)c1cn(C2CC2)c2c3c(c(F)cc2c1=O)N1CCCC1CNC3` (stereo unspecified) has an MIC (Pseudomonas aeruginosa) of 16 µg/mL (≈ 44.8 µM), an MIC (Escherichia coli; [6]) of 0.125 µg/mL (≈ 0.35 µM) and an MIC (Staphylococcus aureus [5]; [7]) of 0.25 µg/mL (≈ 0.7 µM).
`COc1c(N2CCN(C/C(C)=N/Nc3ccc(F)c(Cl)c3)CC2)c(F)cc2c(=O)c(C(=O)O)cn(C3CC3)c12` was tested, and the MIC [1] was 0.396 µM (≈ 0.222 µg/mL), the MIC [2] was 0.125 µg/mL (≈ 0.223 µM) and the MIC (Staphylococcus aureus [3]) was 0.125 µg/mL (≈ 0.223 µM). For the same compound, the MIC (Staphylococcus aureus [4]) was 0.125 µg/mL (≈ 0.223 µM) and the MIC (Enterococcus faecium) was 64 µg/mL (≈ 114 µM).
Work on `COc1c(N2CCN(C/C(C)=N/Nc3ccncc3)CC2)c(F)cc2c(=O)c(C(=O)O)cn(C3CC3)c12` yielded an MIC [1] of 1.78 µM (≈ 0.905 µg/mL), an MIC [2] of 2 µg/mL (≈ 3.93 µM) and an MIC (Staphylococcus aureus [3]) of 2 µg/mL (≈ 3.93 µM). The MIC (Staphylococcus aureus [4]) was 2 µg/mL (≈ 3.93 µM) and the MIC (Enterococcus faecium) was greater than 64 µg/mL.
With `N[C@@H]1CCN2c3c(F)cc4c(=O)c(C(=O)O)cn(C5CC5)c4c3C=NC[C@H]12` the MIC (Pseudomonas aeruginosa) was 1 µg/mL (≈ 2.7 µM), the MIC (Escherichia coli; [6]) was 0.125 µg/mL (≈ 0.337 µM) and the MIC (Staphylococcus aureus [5]; [7]) was 4 µg/mL (≈ 10.8 µM).
For `N[C@@H]1C[C@H]2CC=Cc3c(c(F)cc4c(=O)c(C(=O)O)cn(C5CC5)c34)N2C1`, the MIC (Pseudomonas aeruginosa) was 32 µg/mL (≈ 86.6 µM), the MIC (Escherichia coli; [6]) was 2 µg/mL (≈ 5.41 µM) and the MIC (Staphylococcus aureus [5]; [7]) was 2 µg/mL (≈ 5.41 µM).
`N[C@@H]1CCN2c3c(F)cc4c(=O)c(C(=O)O)cn(C5CC5)c4c3CCC[C@H]12` gave an MIC (Pseudomonas aeruginosa) of 0.125 µg/mL (≈ 0.337 µM), an MIC (Escherichia coli; [6]) of 0.004 µg/mL (≈ 0.0108 µM) and an MIC (Staphylococcus aureus [5]; [7]) of 0.03 µg/mL (≈ 0.0808 µM).
For `N[C@H]1C[C@@H]2CC=Cc3c(c(F)cc4c(=O)c(C(=O)O)cn(C5CC5)c34)N2C1`, the MIC (Pseudomonas aeruginosa) was 0.22 µg/mL (≈ 0.596 µM), the MIC (Escherichia coli; [6]) was 0.008 µg/mL (≈ 0.0217 µM) and the MIC (Staphylococcus aureus [5]; [7]) was no more than 0.06 µg/mL.
Work on `CO/N=C1/Cc2c(c(F)cc3c(=O)c(C(=O)O)cn(C4CC4)c23)N2CCCC2C1` (stereo unspecified) yielded an MIC (Pseudomonas aeruginosa) of 64 µg/mL (≈ 160 µM), an MIC (Escherichia coli; [6]) of 0.25 µg/mL (≈ 0.626 µM) and an MIC (Staphylococcus aureus [5]; [7]) of 1 µg/mL (≈ 2.5 µM).
Compound `N[C@H]1CCN2c3c(F)cc4c(=O)c(C(=O)O)cn(C5CC5)c4c3C=NC[C@H]12` has an MIC (Pseudomonas aeruginosa) of 0.5 µg/mL (≈ 1.35 µM), an MIC (Escherichia coli; [6]) of no more than 0.06 µg/mL and an MIC (Staphylococcus aureus [5]; [7]) of 2 µg/mL (≈ 5.4 µM).
`O=C(O)c1cn(C2CC2)c2c3c(c(F)cc2c1=O)N1CCCC1CCC3` (stereo unspecified) gave an MIC (Pseudomonas aeruginosa) of 17 µg/mL (≈ 47.7 µM), an MIC (Escherichia coli; [6]) of 0.18 µg/mL (≈ 0.505 µM) and an MIC (Staphylococcus aureus [5]; [7]) of 0.1 µg/mL (≈ 0.281 µM).
`C/N=C1/Cc2c(c(F)cc3c(=O)c(C(=O)O)cn(C4CC4)c23)N2CCCC2C1` (stereo unspecified) showed an MIC (Pseudomonas aeruginosa) greater than 32 µg/mL, an MIC (Escherichia coli; [6]) of 0.06 µg/mL (≈ 0.156 µM) and an MIC (Staphylococcus aureus [5]; [7]) of 0.25 µg/mL (≈ 0.652 µM).
For `N[C@@H]1CCN2c3c(F)cc4c(=O)c(C(=O)O)cn(C5CC5)c4c3CNC[C@H]12`, the MIC (Pseudomonas aeruginosa) was 16 µg/mL (≈ 43 µM), the MIC (Escherichia coli; [6]) was 0.25 µg/mL (≈ 0.671 µM) and the MIC (Staphylococcus aureus [5]; [7]) was 1 µg/mL (≈ 2.69 µM).
`N[C@H]1CCN2c3c(F)cc4c(=O)c(C(=O)O)cn(C5CC5)c4c3COC[C@H]12` showed an MIC (Pseudomonas aeruginosa) of 0.25 µg/mL (≈ 0.67 µM), an MIC (Escherichia coli; [6]) of 0.002 µg/mL (≈ 0.00536 µM) and an MIC (Staphylococcus aureus [5]; [7]) of 0.0082 µg/mL (≈ 0.022 µM).
Work on `N[C@H]1C[C@H]2CC=Cc3c(c(F)cc4c(=O)c(C(=O)O)cn(C5CC5)c34)N2C1` yielded an MIC (Pseudomonas aeruginosa) of 64 µg/mL (≈ 173 µM), an MIC (Escherichia coli; [6]) of 16 µg/mL (≈ 43.3 µM) and an MIC (Staphylococcus aureus [5]; [7]) of 8 µg/mL (≈ 21.7 µM).
Compound `N[C@H]1C[C@@H]2CCCc3c(c(F)cc4c(=O)c(C(=O)O)cn(C5CC5)c34)N2C1` has an MIC (Pseudomonas aeruginosa) of 0.45 µg/mL (≈ 1.21 µM), an MIC (Escherichia coli; [6]) of 0.006 µg/mL (≈ 0.0162 µM) and an MIC (Staphylococcus aureus [5]; [7]) of 0.038 µg/mL (≈ 0.102 µM).
`N[C@H]1C[C@H]2COCc3c(c(F)cc4c(=O)c(C(=O)O)cn(C5CC5)c34)N2C1` showed an MIC (Pseudomonas aeruginosa) of 0.38 µg/mL (≈ 1.02 µM), an MIC (Escherichia coli; [6]) of 0.034 µg/mL (≈ 0.0911 µM) and an MIC (Staphylococcus aureus [5]; [7]) of 0.125 µg/mL (≈ 0.335 µM).
For `O=C1CC2CCCN2c2c(F)cc3c(=O)c(C(=O)O)cn(C4CC4)c3c2N1` (stereo unspecified), the MIC (Pseudomonas aeruginosa) was greater than 64 µg/mL, the MIC (Escherichia coli; [6]) was 4 µg/mL (≈ 10.8 µM) and the MIC (Staphylococcus aureus [5]; [7]) was greater than 64 µg/mL.
Compound `O=C(O)c1cn(C2CC2)c2c3c(c(F)cc2c1=O)N1CCCC1C[S+]([O-])C3` (stereo in doubt; 440) has an MIC (Pseudomonas aeruginosa) greater than 16 µg/mL, an MIC (Escherichia coli) of 16 µg/mL (≈ 41 µM) and an MIC (Staphylococcus aureus [5]) of 1 µg/mL (≈ 2.56 µM).
Compound `O=C(O)c1cn(C2CC2)c2c3c(c(F)cc2c1=O)N1CCCC1C[S+]([O-])C3` (stereo in doubt; 441) has an MIC (Escherichia coli) of 1 µg/mL (≈ 2.56 µM) and an MIC (Staphylococcus aureus [5]) of 4 µg/mL (≈ 10.2 µM).
